Measurements taken from patent US8097615B2, “Neurofibrillary labels” (Wista Laboratories Ltd., priority 2001, dated 2012).
Values joined by “and” are separate entries in the source; they are usually repeats but may differ in a detail not shown here. Identical values can stand only once.

Key:
PHFs = assay: Spectrofluorometry of primulin in solution and bound to PHFs (ifII); format: binding
Experimental: These measurements were carried out in a Perkin-Elmer spectrofluorimeter (model MPF-3). A concentration of ligand of 0.00001% was routinely used for all measurements. […] All measurements were therefore carried out at a standard excitation wavelength of 370 nm, and a constant slit width of 3 mm.
Further investigations into the relationship between aggregation-dependent tau ligands and tau aggregation inhibitors were carried out using primulin. Primulin in solution has a fluorescence peak at 520 nm. This shifts to 470 nm when primulin is bound within a pure preparation of PHFs (FIG. 6). […] Therefore, binding by such compounds is dependent on the polymerised state of tau found in the PHF, but is not present in free tau.
Compounds have been identified which disrupt the structure of the PHF and reverse the proteolytic stability of the PHF core (see WO 96/30766). Examples of such compounds are shown in accompanying FIG. 8. The present inventors have now identified that these compounds bind to tau at a specific binding site within the high affinity tau-tau binding domain.

tangle fragments = assay: Competitive binding assay: displacement of primulin fluorescence from tangle fragments (ifI); parameters: species or system human; conditions: for competition with / displacement of other ligands at tangles: fluorescence end point
Experimental: IfI material was homogenised in a 0.2 ml glass homogeniser in PBS. To the suspension, test compounds were added to final concentrations ranging from 0.1% to 0.00001%. […] The suspensions were transferred to a glass slide, and examined by fluorescence microscopy across a range of fluorescence filter blocks, covering excitation and emission wavelengths between 380 nm and 570 nm. The end point sought in these observations was displacement of typical primulin fluorescence from tangle fragments.

tau-tau binding = target: T1, tau-tau binding (Homo sapiens, UniProt P10636); assay: Solid-phase tau-tau binding assay (dGA solid phase, dGAE liquid phase), tau Preparation 2; format: biochemical; conditions: Preparation 2
T1 construct: a truncated tau protein corresponding to the core fragment and terminating at Ala390-dGA; dGAE which terminates at Glu-391; made in house; host or cells: E. coli BL21 (DE3), pRK172; DE52 flow-through, P11 phosphocellulose, PEG concentration, no heat step (Preparation 2)
T1 sequence (P10636 614-708 limits assumed): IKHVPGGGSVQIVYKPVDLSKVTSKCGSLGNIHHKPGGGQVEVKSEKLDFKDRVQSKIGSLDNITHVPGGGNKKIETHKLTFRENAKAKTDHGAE
Experimental: Preparation 2 differs from Preparation 1 above in the following respects: (1) The concentration of cells at the sonication stage is increased by 5-fold. (2) A batchwise adsorption of non-tau proteins to DE52 is included. (3) The proteins are not subjected to heat treatment. (4) The final step involves concentration using polyethylene glycol.
Escherichia coli is grown in 2×TY medium (Oxoid) supplemented with ampicillin (50 micrograms per ml) to late-logarithmic phase. Cells from 5 liters of culture are harvested by centrifugation and the cell pellets frozen rapidly over liquid nitrogen. The pellets are taken up with 50 mM PIPES (pH 6.8) containing 1 mM EDTA, 1 mM dithiothreitol and 1 mM phenylmethylsulphonylfluoride (PMSF) and bacteria lysed by sonication (2×3 min) at 4 C. The mixture is centrifuged at 10,000 rpm for 20 min. The supernatant is rotated with 1 gram of Whatman DE52 for 3 hr at 4 C. The mixture is separated on a column and the flow-through material that fails to bind to DE52 is incubated for 3 hr at 4 C, with rotation, with 0.4 g of Whatman P11 (freshly regenerated according to manufacturer's recommendations). The column is washed with column buffer (50 mM PIPES, pH 6.8 containing 1 mM EGTA, 5 mM EDTA, 0.2 mM MgCl2, 5 mM β-mercaptoethanol and 1 mM PMSF). Tau protein is eluted stepwise with a 0.1 to 1 M gradient of KCl in column buffer. Fractions containing tau (determined by immunoassay) are pooled and dialysed against 80 mM PIPES (pH6.8) containing 1 mM EGTA, 1 mM MgCl2 and 5 mM β-mercatoethanol, using dialysis tubing with a molecular weight cut-off of 1,000. The dialysate is concentrated by applying polyethylene glycol 8000 to the outside of the sac for 2-3 hr. The final concentration of tau ranged from 3 to 10 mg per ml.
When the proteins dGA and dGAE were prepared as indicated above (“Preparation 2”), the properties of the tau-tau binding assay were altered relative to the properties obtained using the preparative method described in WO96/30766 (“Preparation 1”).
The assay is performed using 96 well PVC plates (Falcon Cat. No. 353912 are used), and the following steps:
1. 50 μl dGA (˜10 μg/ml) in carbonate buffer, incubate 1 h at 37° C.
(Carbonate buffer: 50 mM carbonate bicarbonate, pH 9.6 (Na2CO3 1.59 g/l, NaHCO3 2.93 g/l))
2. Wash plate in 0.05% Tween-20.
3. 200 μl PBS+2% Marvel, incubate 1 h at 37° C.
4. Rinse plate 2× in deionised water, then wash in 0.05% Tween-20.
5. 50 μl dGAE (˜10 μg/ml) plus drug in PBS+1% fish skin gelatin+0.05% Tween-20, incubate 1 h at 37° C.
6. Wash plate in 0.05% Tween-20.
7. 50 μl antibody 423 (1:10 dilution in PBS+2% Marvel), incubate 1 h at 37° C.
8. Rinse plate 2× in deionised water, then wash in 0.05% Tween-20.
9. 50 μl HRP-anti-mouse (1:1000 dilution in PBS+0.05% Tween-20), incubate 1 h at 37° C.
10. Wash plate in 0.05% Tween-20, then rinse 1× with deionised water.
11. 50 μl substrate solution, read immediately initial rate over 2 min in plate reader at OD650.
(Substrate solution: 50 mM sodium acetate, pH 5.0+TMB (1 ml/100 ml of a 10 mg/ml solution in DMSO)+H2O2 (10 μl/100 ml)).

`Cc1ccc2sc(-c3ccc4sc(-c5ccc(N)cc5)nc4c3)nc2c1S(=O)(=O)[O-].[Na+]` [primulin] was tested, and the excitation peak (PHFs; ligand 0.00001%) was 370 nm, the “fluorescence peak when bound within PHFs” value (PHFs; pure preparation of PHFs) was 460 nm and 470 nm and the “fluorescence (emission) peak in solution” value (PHFs; unbound) was 515 nm and 520 nm. For the same compound, the activity as ligand (tangle fragments) was “active ligands”, the “competition with / displacement of other ligands at tangles” value (tangle fragments) was “displace this from tangles” and the “competition with / displacement of other ligands at tangles” value (tangle fragments; listed as compound 1a) was “displace compound 1b at tangles”. For the same compound, the “inhibition of tau-tau binding” value (tau-tau binding) was “no inhibitory activity”.
